According to patent US10245249B2, “Pharmaceutical compositions comprising nitroxyl donors” (Cardioxyl Pharmaceuticals, Inc., priority 2013, dated 2019):

Test: HNO production determined via N2O quantification (GC headspace analysis)
Assay type: physicochemical
Conditions: PBS, 37° C., 90 minutes incubation
Source text: Nitrous oxide (N2O) is produced via the dimerization and dehydration of HNO, and is the most common marker for nitroxyl production (Fukuto et al., Chem. Res. Toxicol. 18:790-801 (2005)). […] Using either nitrous oxide gas or Angeli's salt (AS) as a standard, the relative amounts of N2O released from compounds of the disclosure was examined via gas chromatography (GC) headspace analysis.
A procedure for determining the relative amounts of N2O released from compounds of the disclosure is as follows. GC was performed on an Agilent gas chromatograph equipped with a split injector (10:1 splitting), microelectron capture detector, and a HP-MOLSIV 30 m×0.32 mm×25 μm molecular sieve capillary column. Helium was used as the carrier (4 mL/min) gas and nitrogen was used as the make-up (20 mL/min) gas. The injector oven and the detector oven were kept at 200° C. and 325° C., respectively. All nitrous oxide analyses were performed with the column oven held at a constant temperature of 200° C.
All gas injections were made using an automated headspace analyzer. Vial pressurization was 15 psi. The analyzer's sample oven, sampling valve, and transfer line were kept at 40° C., 45° C., and 50° C., respectively. The oven stabilization, vial pressurization, loop fill, loop equilibration, and sample injection times were 1.00 min., 0.20 min., 0.20 min., 0.05 min., and 1.00 min., respectively.
All determinations used a batch of nominal 20 mL headspace vials with volumes pre-measured for sample uniformity (actual vial volume varied by <2.0% relative standard deviation (n=6)). The average vial volume for the batch was determined from six randomly-selected vials by calculating the weight difference between the capped and sealed empty (i.e., air-filled) vial and the capped and sealed deionized water-filled vial using the known density of deionized water, then averaging. Blanks were prepared by sealing and capping two vials then purging each for 20 seconds with a gentle argon stream. Nitroxyl standards were prepared by sealing and capping four vials then purging each for 1 minute with a gentle stream, from a gas cylinder, of a 3000 ppm […].
CXL-1020 (N-hydroxy-2-methanesulfonylbenzene-1-sulfonamide) “standards” were prepared by, in duplicate, accurately weighing 10±0.5 mg of CXL-1020 and adding it to each 4 mL vial. Using an auto pipette, 1 mL of argon-purged anhydrous DMF (Sigma-Aldrich) was added to each 4 mL vial to form a CXL-1020 stock solution for each sample and the vials were capped and shaken and/or sonicated to insure complete dissolution upon visual observation. Using an auto pipette, 20 mL vials were charged with 5 mL of PBS (purged for at least 30 min. with argon prior to use), purged with argon for at least 20 sec., and sealed with a rubber septum. Using a 50 μL syringe, 50 μL of the CXL-1020 stock solution was injected into each 20 mL vial containing the PBS.
Samples were prepared as follows. In duplicate, 18±1 mg of each sample was accurately weighed into each 4 mL vial. Using an auto pipette, 1 mL of argon-purged anhydrous DMF was added to each 4 mL vial to form a sample stock solution for each sample and the vials were capped and shaken and/or sonicated to insure complete sample dissolution upon visual observation. Using an auto pipette, 20 mL vials were charged with 5 mL of PBS (purged for at least 30 min. with argon prior to use), purged with argon for at least 20 sec., and sealed with a rubber septum. The vials were equilibrated for at least 10 min. at 37° C. in a dry block heater. Thereafter, using a 50 μL syringe, 50 μL of a sample stock solution was injected into each 20 mL vial containing the PBS. The vials were then held at 37° C. in the dry block heater for a time period such that the sum of the time spent in the dry block heater plus the time spent in the automated headspace analyzer oven before sample injection equaled the desired incubation time. […]

For `O=S(=O)(NO)c1coc2ccccc12` [Compound 6, N-Hydroxy-1-benzofuran-3-sulfonamide], which “Relative N2O Yield (90 minutes incubation)” value (from here on “Relative N2O Yield”) is on record?
The value was 85%.

For `O=S(=O)(NO)c1ncccc1Br` [Compound 33, 3-Bromo-N-hydroxypyridine-2-sulfonamide], which “Relative N2O Yield” value is on record?
Its value is 85.5%.

For `NS(=O)(=O)c1cc(S(=O)(=O)NO)cs1` [Compound 34, 4-N-Hydroxythiophene-2,4-disulfonamide], which “Relative N2O Yield” value is on record?
Its value is 100%.

Which “Relative N2O Yield” value does the source give for `O=S(=O)(NO)c1ccc(-c2cc(C(F)(F)F)on2)s1` [Compound 36, N-Hydroxy-5-[5-(trifluoromethyl)-1,2-oxazol-3-yl]thiophene-2-sulfonamide] here?
Its value is 51%.

For `O=S(=O)(NO)C1=C(Cl)NC2SC=CN12` (centres unmarked) [Compound 37, 6-Chloro-N-hydroxy-7H,7aH-imidazo[2,1-b][1,3]thiazole-5-sulfonamide], which “Relative N2O Yield” value is on record?
The value was 51%.

Which “Relative N2O Yield” value does the source give for `O=S(=O)(NO)c1ccc(-c2ccno2)s1` [Compound 38, N-Hydroxy-5-(1,2-oxazol-5-yl)thiophene-2-sulfonamide] here?
The value was 25%.

For `O=S(=O)(NO)c1ccc(-c2cnco2)s1` [Compound 40, N-Hydroxy-5-(1,3-oxazol-5-yl)thiophene-2-sulfonamide], which “Relative N2O Yield” value is on record?
Its value is 50%.

With `Cc1cc(S(=O)(=O)NO)c(C)s1` [Compound 41, N-Hydroxy-2,5-dimethylthiophene-3-sulfonamide] as the molecule, how does the “Relative N2O Yield” value read?
Its value is 13%.

With `COC(=O)c1cc(C)c(S(=O)(=O)NO)s1` [Compound 42, Methyl 5-(hydroxysulfamoyl)-4-methylthiophene-2-carboxylate] as the molecule, how does the “Relative N2O Yield” value read?
Its value is 91%.

Which “Relative N2O Yield” value does the source give for `O=S(=O)(NO)c1ccc(S(=O)(=O)c2ccccc2)s1` [Compound 43, 5-(Benzenesulfonyl)-N-hydroxythiophene-2-sulfonamide] here?
Its value is 82%.

Which “Relative N2O Yield” value does the source give for `O=S(=O)(NO)c1ccc(-c2ccon2)s1` [Compound 44, N-Hydroxy-5-(1,2-oxazol-3-yl)thiophene-2-sulfonamide] here?
The value was 81%.

Which “Relative N2O Yield” value does the source give for `O=S(=O)(NO)c1ccc(Br)s1` [Compound 45, 5-Bromo-N-hydroxythiophene-2-sulfonamide] here?
The value was 76%.

For `O=S(=O)(NO)c1sc(Br)cc1Br` [Compound 46, 3,5-Dibromo-N-hydroxythiophene-2-sulfonamide], which “Relative N2O Yield” value is on record?
Its value is 95%.

With `O=S(=O)(NO)c1sccc1Cl` [Compound 48, 3-Chloro-N-hydroxythiophene-2-sulfonamide] as the molecule, how does the “Relative N2O Yield” value read?
Its value is 82%.

With `O=S(=O)(NO)c1c(Cl)ccc2nonc12` [Compound 50, 5-Chloro-N-hydroxy-2,1,3-benzoxadiazole-4-sulfonamide] as the molecule, how does the “Relative N2O Yield” value read?
Its value is 31%.

With `COc1ccc(S(=O)(=O)NO)cc1OC` [Compound 52, N-Hydroxy-3,4-dimethoxybenzene-1-sulfonamide] as the molecule, how does the “Relative N2O Yield” value read?
Its value is 11%.

For `Cc1cc(C)c(C)c(S(=O)(=O)NO)c1C` [Compound 53, N-Hydroxy-2,3,5,6-tetramethylbenzene-1-sulfonamide], which “Relative N2O Yield” value is on record?
The value was 70%.

With `O=S(=O)(NO)c1cc(C(F)(F)F)cc(C(F)(F)F)c1` [Compound 54, N-Hydroxy-3,5-bis(trifluoromethyl)benzene-1-sulfonamide] as the molecule, how does the “Relative N2O Yield” value read?
The value was 2%.

With `COC(=O)c1ccc(Cl)c(S(=O)(=O)NO)c1` [Compound 55, Methyl 4-chloro-3-(hydroxysulfamoyl)benzoate] as the molecule, how does the “Relative N2O Yield” value read?
The value was 87%.

Which “Relative N2O Yield” value does the source give for `O=C(c1ccc(Cl)c(S(=O)(=O)NO)c1)N1CCC(=NO)CC1` [Compound 58, 2-Chloro-N-hydroxy-5-[4-(hydroxyimino)piperidine-1-carbonyl]benzene-1-sulfonamide] here?
Its value is 92%.

For `COCCN(C)C(=O)c1ccc(Cl)c(S(=O)(=O)NO)c1` [Compound 59, 4-Chloro-3-(hydroxysulfamoyl)-N-(2-methoxyethyl)-N-methylbenzamide], which “Relative N2O Yield” value is on record?
The value was 82%.

For `O=C(O)c1cc(S(=O)(=O)NO)ccc1O` [Compound 60, 2-Hydroxy-5-(hydroxysulfamoyl)benzoic acid], which “Relative N2O Yield” value is on record?
Its value is 9%.

For `CN1CCOc2cc(S(=O)(=O)NO)ccc21` [Compound 61, N-Hydroxy-4-methyl-3,4-dihydro-2H-1,4-benzoxazine-7-sulfonamide], which “Relative N2O Yield” value is on record?
Its value is 11%.

With `O=S(=O)(NO)c1ccc(O)cc1Cl` [Compound 62, 2-Chloro-N,4-dihydroxybenzene-1-sulfonamide] as the molecule, how does the “Relative N2O Yield” value read?
The value was 28%.

Which “Relative N2O Yield” value does the source give for `CN(C)C(=O)c1cc(S(=O)(=O)NO)c(Cl)cc1O` [Compound 64, 4-Chloro-2-hydroxy-5-(hydroxysulfamoyl)-N,N-dimethylbenzamide] here?
The value was 36%.

With `CN1CCc2cc(Cl)c(S(=O)(=O)NO)cc21` [Compound 65, 5-Chloro-N-hydroxy-1-methyl-2,3-dihydro-1H-indole-6-sulfonamide] as the molecule, how does the “Relative N2O Yield” value read?
Its value is 71%.

With `O=S(=O)(NO)c1cc(O)ccc1Cl` [Compound 66, 2-Chloro-N,5-dihydroxybenzene-1-sulfonamide] as the molecule, how does the “Relative N2O Yield” value read?
The value was 80%.

For `CN1CCc2cc(Br)c(S(=O)(=O)NO)cc21` [Compound 67, 5-Bromo-N-hydroxy-1-methyl-2,3-dihydro-1H-indole-6-sulfonamide], which “Relative N2O Yield” value is on record?
The value was 59%.

With `COCc1ccc(Cl)c(S(=O)(=O)NO)c1` [Compound 68, 2-Chloro-N-hydroxy-5-(methoxymethyl)benzene-1-sulfonamide] as the molecule, how does the “Relative N2O Yield” value read?
Its value is 86%.

Which “Relative N2O Yield” value does the source give for `COC(=O)c1ccc(S(=O)(=O)NO)o1` [Compound 69, Methyl 5-(hydroxysulfamoyl)furan-2-carboxylate] here?
The value was 100%.

For `Cc1cc(S(=O)(=O)NO)c(C)o1` [Compound 70, N-Hydroxy-2,5-dimethylfuran-3-sulfonamide], which “Relative N2O Yield” value is on record?
The value was 6%.

Which “Relative N2O Yield” value does the source give for `CCS(=O)(=O)c1ccccc1S(=O)(=O)NO` [Compound 72, 2-(Ethanesulfonyl)-N-hydroxybenzene-1-sulfonamide] here?
Its value is 97%.

For `CC(C)S(=O)(=O)c1ccccc1S(=O)(=O)NO` [Compound 73, N-Hydroxy-2-(propane-2-sulfonyl)benzene-1-sulfonamide], which “Relative N2O Yield” value is on record?
The value was 97%.

Which “Relative N2O Yield” value does the source give for `CC(=O)N1CCOc2ccc(S(=O)(=O)NO)cc21` [Compound 74, 4-Acetyl-N-hydroxy-3,4-dihydro-2H-1,4-benzoxazine-6-sulfonamide] here?
Its value is 17%.

For `COC(=O)c1ccc(S(=O)(=O)NO)n1C` [Compound 75, Methyl 5-(hydroxysulfamoyl)-1-methyl-1H-pyrrole-2-carboxylate], which “Relative N2O Yield” value is on record?
Its value is 4%.

For `CC(=O)Nc1ncc(S(=O)(=O)NO)s1` [Compound 76, N-[5-(Hydroxysulfamoyl)-1,3-thiazol-2-yl]acetamide], which “Relative N2O Yield” value is on record?
Its value is 76%.

For `Cc1oc(C)c(S(=O)(=O)NO)c1C(=O)N1CCOCC1` [Compound 77, N-Hydroxy-2,5-dimethyl-4-(morpholine-4-carbonyl)furan-3-sulfonamide], which “Relative N2O Yield” value is on record?
Its value is 14%.

Which “Relative N2O Yield” value does the source give for `CCOC(=O)c1coc(S(=O)(=O)NO)c1` [Compound 78, Ethyl 5-(hydroxysulfamoyl)furan-3-carboxylate] here?
Its value is 86%.
